One assay deals with T1, human GLP-1R receptor (Homo sapiens, UniProt P43220, L260F).
T1 construct: expressed in transfected cells; host or cells: CHO-K1 (ATCC CCL-61)
The experiment in a line: CHOK1 GLP-1R cAMP Assay. Format: cell-based. To be noted: CHO-K1 cell line stably expressing human GLP-1R; HTRF cAMP detection. As for the experimental part:
A cell line stably expressing the human GLP-1R receptor (NM_002062.5, including the naturally-occurring variant Leu260Phe) in a CHO-K1 (ATCC® CCL-61™) was used for assay.
GLP-1 Receptor mediated agonist activity was determined in a cell based assay measuring cAMP levels in cells using Homogeneous Time-Resolved Fluorescence (HTRF) cAMP detection kit (CisBio catalog #62AM4PEC, cAMP Gs Dynamic range kit). The cAMP detection method is based on a competitive immunoassay, in which cAMP produced by the cells and cAMP labeled with the dye d2 compete for binding to a Europium-Cryptate-labeled anti-cAMP antibody. The specific HTRF signal is inversely proportional to the concentration of cAMP.
Compounds were added to individual well in 384 well-assay plates (Greiner #784076) using an Echo (LabCyte) dispenser from 10 mM stocks. Varying concentration of compounds were added to wells, and dimethyl sulfoxide was used to normalize each well to a volume of 100 nanoliter. A dose response curve of GLP1(7-36)NH2 (Bachem H-6795) was included in each run. 5 μL of cAMP concentration response standards are applied in specified wells in the assay plates.
Cryo-preserved cells are thawed and resuspended in assay buffer pre-heated to 37° C. (20 mM 2-[4-(2-hydroxyethyl)piperazin-1-yl]ethanesulfonic acid (HEPES) pH 7.4, lx Hank's Balanced Salt Solution (HBSS, Life Technologies #14065) supplemented with 0.1% (w/v) bovine serum albumin (Sigma, A-7030)). Cells were centrifuged at 250*g for 5 min at room temperature, and resuspend in room tempered assay buffer to a final density of 0.16*10^6 cell/mL, to deliver 800 cells/well. 5 μL of assay buffer with 1 mM 3-isobutyl-1-methylxanthin (IBMX; Sigma cat I-7018) was dispensed per well in assay plates using a multidrop combi (Thermo Scientific) subsequently 5 μL of cell suspension was distributed to relevant wells in the assay using a multidrop dispenser. Assay plates were incubated 20 min at room temperature.
Detection reagents, Europium-Cryptate-labeled anti-cAMP antibody and cAMP labeled with the dye d2, are diluted in lysis buffer, provided by the manufacturer. 5 μL of each detection reagent is supplemented to each assay well using a multidrop dispenser. Assay plates are incubated in the dark for at least one hour. The HTRF signal is measured using the HTRF module (excitation: 337 nm, emission A: 665 nm and emission B: 620 nm) in Pherastar FSX (BMG Labtech).
Raw data were converted to pM cAMP using the cAMP standard curve included in each run. Converted data were further analyzed in Genedata Screener (Genedata) and EC50 determinations were made from agonist dose-response curves analyzed with a curve fitting program using a 4-parameter logistic dose response equation (Equation y=A+((B−A)/1+((C/x)^D))) where A is no stimulation, B is full stimulation, C is the EC50 and D is the Hill slope). The percent effect was determined relative to a saturating concentration of a full GLP-1R agonist (GLP1(7-36)NH2 has 100% effect in this assay setup).
(In general: TR-FRET usually uses a lanthanide donor and a delayed reading to cut background.)

The target of assay [1] is T2, endogenous human glucagon-like peptide 1 receptor (GLP-1R) (Homo sapiens, UniProt P43220).
T2 construct: endogenous human glucagon-like peptide 1 receptor (GLP-1R) in a pancreatic insulinoma cell line; host or cells: EndoC-βH1 human pancreatic β cell line
T2 sequence (P43220 24-463): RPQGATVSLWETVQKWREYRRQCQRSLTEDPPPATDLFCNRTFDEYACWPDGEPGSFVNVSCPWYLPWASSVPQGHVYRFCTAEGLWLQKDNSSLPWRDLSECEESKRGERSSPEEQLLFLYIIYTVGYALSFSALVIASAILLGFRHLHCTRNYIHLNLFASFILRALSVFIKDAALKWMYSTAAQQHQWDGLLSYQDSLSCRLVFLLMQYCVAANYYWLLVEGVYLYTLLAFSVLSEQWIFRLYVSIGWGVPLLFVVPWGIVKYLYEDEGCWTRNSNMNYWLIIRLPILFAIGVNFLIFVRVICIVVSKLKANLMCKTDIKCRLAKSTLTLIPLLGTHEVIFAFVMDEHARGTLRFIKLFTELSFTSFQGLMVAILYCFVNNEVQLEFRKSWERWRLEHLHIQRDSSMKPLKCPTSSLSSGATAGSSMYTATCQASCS
The assay is described as follows: EndoC cAMP Accumulation Assay. The format is cell-based. To be noted: EndoC-βH1 human pancreatic β cell line; HTRF cAMP assay. An excerpt:
EndoC cAMP Accumulation Assay
A HTRF (Homogeneous Time-Resolved Fluorescence) cAMP assay (cAMP Gs dynamic kit; CisoBio Cat #62AM4PEJ) was used to identify agonists of the endogenous human glucagon-like peptide 1 receptor (GLP-1R) in a pancreatic insulinoma cell line (EndoC-βH1). […] EndoC-βH1 cells have detectable GLP-1R mRNA as detected by qPCR^1. […] The EndoC-βH1 cell line is a valid model of human beta cells and applicable for screenings to identify novel drug target candidates (Mol. Metab., 2018, 8, 144-157). CisBio HTRF cAMP kits are based on a competitive immunoassay using cryptate-labelled anti-cAMP antibody and d2-labeled cAMP. The detection kit is intended for the direct quantitative determination of cAMP. The specific signal (i.e. energy transfer) is inversely proportional to the concentration of cAMP in the standard or sample. Test compounds (10 mM in DMSO) were diluted into assay buffer (HBSS (Sigma #H8264) supplemented with 25 mM HEPES (Gibco #15630, pH 7.4), 0.1% BSA (Sigma #A3059) and 0.5 mM IBMX (Sigma #I7018) included fresh on the day of the assay) into 96 well U-bottom plates (Greiner #650201). Diluted compounds were transferred to ECHO source PP plates (Labcyte #P-05525) and dose response curves were dispensed acoustically using ECHO 550 into black shallow-well u-bottom 384-well HTRF Assay Plates (Corning 4514).
Cryovials of EndoC-H1 (supplied at 1×10e^7 cells/vial) were used directly for screening. The cryovials and were removed from LN2 and thawed rapidly in a 37° C. water bath. The cells were resuspended in assay buffer and centrifuged at 300 g for 5 min. Cells were resuspended in assay buffer at the appropriate concentration, typically at 12e5 cells per mL (3000 cells per well, dependent on cell batch) and 2.5 μL diluted cells were added to all wells of destination plate by Multidrop combi reagent dispenser (Thermofisher). The plates were incubated at room temperature for 30 min. The assay was stopped by adding 2.5 μL anti-cAMP cryptate solution to all wells and 2.5 μL cAMP-d2 solution (both diluted 1:20 in lysis buffer) to columns 1-22 by Combi drop. A volume of 2.5 μL cAMP-d2 solution was added to wells E23 to P24 and 2.5 μL lysis buffer added to wells A23 to D24 by multichannel pipette. The plates were incubated at room temperature for 1 hr and read on an Envision plate reader using excitation wavelength of 320 nm and emission of 590 nm and 660 nm.
Raw data from Envision is converted to % DeltaF according to the manufacturer's instructions. Dose response curves are analysed via 4-Parameter Logistical Analysis and assay plate Z′ values obtained. Samples are graphed as percentage (%) activation plots compared to GIP (1-42, Bachem H-5645) with assay window defined by negative control as basal cell cAMP levels and positive control are defined by maximum GIP (82.5 nM) signal. GLP1 (7-36 amide, Bachem H-6795) dose response curve was included on all plates.

Structures are written as SMILES.

Broadly, the EC50 is the concentration giving half of the maximal effect. A high value points to a need for much substance.

T1 sequence (P43220 24-463 L260F): as the sequence (P43220 24-463) above, with L237F counted along it

Regarding `C[C@]1(c2ccc(Cl)cn2)Oc2cccc(N3CCN(Cc4nc5c(F)cc(C(=O)O)cc5n4C[C@@H]4CCO4)[C@H]4COC[C@H]43)c2O1` (single isomer, unassigned) [Example 9c, 2-((4aR*,7aS*)-4-((R*)-2-(5-Chloropyridin-2-yl)-2-methylbenzo[d][1,3]dioxol-4-yl)hexahydrofuro[3,4-b]pyrazin-1(2H)-yl)methyl)-4-fluoro-1-(((S)-oxetan-2-yl)methyl)-1H-benzo[d]imidazole-6-carboxylic acid], the results for the EC50 (on human GLP-1R receptor; in assay [1]) were 0.57 µM and 1.1 µM, respectively.
On the same counts, the results for `C[C@]1(c2ccc(Cl)cn2)Oc2cccc(N3CCN(Cc4nc5ccc(C(=O)O)cc5n4CCn4cccn4)[C@H]4COC[C@H]43)c2O1` (single isomer, unassigned) [Example 10] are 0.16 µM and 0.076 µM.
On the same counts, the results for `C[C@]1(c2ccc(Cl)cn2)Oc2cccc(N3CCN(Cc4nc5c(F)cc(C(=O)O)cc5n4CCn4cccn4)[C@H]4COC[C@H]43)c2O1` (single isomer, unassigned) [Example 11] are 0.096 µM and 0.035 µM.
For the molecule `C[C@]1(c2ccc(Cl)cn2)Oc2cccc(N3CCN(Cc4nc5c(F)cc(C(=O)O)cc5n4C[C@@H]4CCCO4)[C@H]4COC[C@H]43)c2O1` (single isomer, unassigned) [Example 12a, 2-(((4aR*,7aS*)-4-((R*)-2-(5-Chloropyridin-2-yl)-2-methylbenzo[d][1,3]dioxol-4-yl)hexahydrofuro[3,4-b]pyrazin-1(2H)-yl)methyl)-4-fluoro-1-(((S)-tetrahydrofuran-2-yl)methyl)-1H-benzo[d]imidazole-6-carboxylic acid], the values for the EC50 (on human GLP-1R receptor; in assay [1]) were 0.008 µM and 0.0076 µM, respectively.
Take `C[C@]1(c2ccc(Cl)cn2)Oc2cccc(N3CCN(Cc4nc5c(F)cc(C(=O)O)cc5n4C[C@@H]4CCCO4)[C@H]4COC[C@H]43)c2O1` (single isomer, unassigned) [Example 12b, 2-(((4aR*,7aS*)-4-((R*)-2-(5-Chloropyridin-2-yl)-2-methylbenzo[d][1,3]dioxol-4-yl)hexahydrofuro[3,4-b]pyrazin-1(2H)-yl)methyl)-4-fluoro-1-(((S)-tetrahydrofuran-2-yl)methyl)-1H-benzo[d]imidazole-6-carboxylic acid]: the EC50 was 0.061 µM at human GLP-1R receptor and 0.091 µM in assay [1].
Take `C[C@]1(c2ccc(Cl)cc2F)Oc2cccc(N3CCN(Cc4nc5c(F)cc(C(=O)O)cc5n4Cc4cccnc4)[C@H]4COC[C@H]43)c2O1` (single isomer, unassigned) [Example 13a]: the EC50 at human GLP-1R receptor is 0.055 µM; in assay [1], 0.013 µM.
For `C[C@]1(c2ccc(Cl)cc2F)Oc2cccc(N3CCN(Cc4nc5c(F)cc(C(=O)O)cc5n4Cc4cccnc4)[C@H]4COC[C@H]43)c2O1` (single isomer, unassigned) [Example 13b] the same measures were 0.68 µM and 0.29 µM.
Consider `C[C@]1(c2ccc(Cl)cn2)Oc2cccc(N3CCN(Cc4nc5c(Cl)cc(C(=O)O)cc5n4C[C@@H]4CCO4)[C@H]4COC[C@H]43)c2O1` (single isomer, unassigned) [Example 14a, 4-Chloro-2-(((4aR*,7aS*)-4-((R*)-2-(5-chloropyridin-2-yl)-2-methylbenzo[d][1,3]dioxol-4-yl)hexahydrofuro[3,4-b]pyrazin-1(2H)-yl)methyl)-1-(((S)-oxetan-2-yl)methyl)-1H-benzo[d]imidazole-6-carboxylic acid], for which the EC50 came to 0.0015 µM on human GLP-1R receptor and 0.0033 µM in assay [1].
With `C[C@]1(c2ccc(Cl)cn2)Oc2cccc(N3CCN(Cc4nc5c(Cl)cc(C(=O)O)cc5n4C[C@@H]4CCO4)[C@H]4COC[C@H]43)c2O1` (single isomer, unassigned) [Example 14b, 4-Chloro-2-(((4aR*,7aS*)-4-((R*)-2-(5-chloropyridin-2-yl)-2-methylbenzo[d][1,3]dioxol-4-yl)hexahydrofuro[3,4-b]pyrazin-1(2H)-yl)methyl)-1-(((S)-oxetan-2-yl)methyl)-1H-benzo[d]imidazole-6-carboxylic acid], the EC50 was 0.17 µM on human GLP-1R receptor and 0.6 µM in assay [1].
For `C[C@]1(c2ccc(Cl)cn2)Oc2cccc(N3CCN(Cc4nc5c(Cl)cc(C(=O)O)cc5n4C[C@@H]4CCO4)[C@H]4COC[C@H]43)c2O1` (single isomer, unassigned) [Example 14c, 4-Chloro-2-(((4aR*,7aS*)-4-((R*)-2-(5-chloropyridin-2-yl)-2-methylbenzo[d][1,3]dioxol-4-yl)hexahydrofuro[3,4-b]pyrazin-1(2H)-yl)methyl)-1-(((S)-oxetan-2-yl)methyl)-1H-benzo[d]imidazole-6-carboxylic acid] the same measures were 0.18 µM and 0.23 µM.
For `C[C@]1(c2ccc(Cl)cn2)Oc2cccc(N3CCN(Cc4nc5c(Cl)cc(C(=O)O)cc5n4C[C@@H]4CCO4)[C@H]4COC[C@H]43)c2O1` (single isomer, unassigned) [Example 14d, 4-Chloro-2-(((4aR*,7aS*)-4-((R*)-2-(5-chloropyridin-2-yl)-2-methylbenzo[d][1,3]dioxol-4-yl)hexahydrofuro[3,4-b]pyrazin-1(2H)-yl)methyl)-1-(((S)-oxetan-2-yl)methyl)-1H-benzo[d]imidazole-6-carboxylic acid] the same measures were 0.19 µM and 0.48 µM.
On the same counts, the results for `C[C@]1(c2ccc(Cl)cc2F)Oc2cccc(N3CCN(Cc4nc5c(Cl)cc(C(=O)O)cc5n4C[C@@H]4CCO4)[C@H]4COC[C@H]43)c2O1` (single isomer, unassigned) [Example 15b, 4-Chloro-2-(((4aR*,7aS*)-4-((R*)-2-(4-chloro-2-fluorophenyl)-2-methylbenzo[d][1,3]dioxol-4-yl)hexahydrofuro[3,4-b]pyrazin-1(2H)-yl)methyl)-1-(((S)-oxetan-2-yl)methyl)-1H-benzo[d]imidazole-6-carboxylic acid] are 0.071 µM and 0.12 µM.
